Laboratory results: patent publication US12150972B1, “Egg white protein anti-inflammatory peptide and application thereof” (Hangzhou BIBAU Biotechnology Co., Ltd., priority 2023, dated 2024)
Peptide text beside a SMILES is read from it.

Tests used:
[1] = tested on: NO production in RAW264.7 cells induced by LPS; test: NO production amount in LPS-induced RAW264.7 cells (Griess method); format: cell-based, mouse; conditions: for NO production amount: RAW264.7 induced by LPS 1 μg/mL
Protocol: The NO production amount in the cell was measured by Griess method. The grouping, treatment and culture methods were the same as 1.2. After 24 hours of culture, the supernatant was collected and the NO production amount was measured using a NO detection kit. 50 μL of cell supernatant, 50 μL of Griess I reagent, and 50 μL of Griess II reagent were mixed, and stood for 5 minutes, and then the absorbance value at 540 nm was measured. According to the instructions of the NO kit, the NO production amount in each sample was calculated, and the inhibition ratio of NO production amount is calculated by formula (2).
In the formula, B refers to the NO inhibition ratio (%), B0 is the NO production amount of the blank group, B1 is the NO production amount of the LPS group, and B2 is the NO production amount of the sample group.

[2] = tested on: IL-6 secretion in RAW264.7 cells induced by LPS; test: IL-6 secretion in LPS-induced RAW264.7 cells (ELISA); format: cell-based, mouse; conditions: RAW264.7 induced by LPS; sample 500 μg/mL
Protocol: (§1) The three groups were cultured in the incubator for 24 hours, and the supernatants were collected. According to the instructions of the ELISA kit, the absorbance value at 450 nm was measured and the secretion amounts of inflammatory factors TNF-α, IL-6 and IL-1β were calculated. The inhibition ratios of the three inflammatory factors were calculated by formula (3).
(§2) In the formula, C refers to the inhibition ratio (%) of inflammatory factors, Co is the secretion amount of inflammatory factors in the blank group, C1 is the secretion amount of inflammatory factors in the LPS group, and C2 is the secretion amount of inflammatory factors in the sample group.

in vitro = conditions: mouse, RAW264.7 macrophage cells induced by LPS, cell viability
Protocol: The cell viability of RAW264.7 cells was determined by MTT method. RAW264.7 cells in the logarithmic growth phase were seeded in a 96-well plate at 100 μL/well with a density of 4×10^4/well. The outermost layer of the 96-well plate was sealed by PBS solution, and the 96-well plate was transferred to an incubator for culturing for 12 to 24 hours. The incubator temperature was 37° C. and the CO2 concentration was 5%. After the cells adhered to the wall, the waste supernatant was extracted from the 96-well plate. A blank group (added with 100 μL of culture medium), an LPS group (added with 100 μL of LPS with a final mass concentration of 1 μg/mL), and a sample group (added with 100 μL of peptides with different or the same mass concentration and added with LPS with a final mass concentration of 1 μg/mL after 2 hours of reaction) were set, and each group was performed in triplicate. After culturing for 24 hours, 20 μL of MTT solution with a concentration of 5 mg/mL was added into each well. After continuing to culture in the incubator for 4 hours, 100 μL of dimethyl sulfoxide (DMSO) was added and shaken gently for 10 min. The absorbance value at 570 nm was measured with a microplate reader, and the cell viability (%) was calculated according to the formula (1).
In the formula (1), V refers to the cell viability (%), A1 is the absorbance value of the blank group at 570 nm, and A2 is the absorbance value of the sample group at 570 nm.

[3] = tested on: TNF-α secretion in RAW264.7 cells induced by LPS; test: TNF-α secretion in LPS-induced RAW264.7 cells (ELISA); format: cell-based, mouse; conditions: RAW264.7 induced by LPS; sample 500 μg/mL
Protocol: as §1, §2

[4] = tested on: IL-1β secretion in RAW264.7 cells induced by LPS; test: IL-1β secretion in LPS-induced RAW264.7 cells (ELISA); format: cell-based, mouse; conditions: RAW264.7 induced by LPS; sample 500 μg/mL
Protocol: as §1, §2

SMILES: N[C@@H](Cc1ccccc1)C(=O)NCC(=O)N1CCC[C@H]1C(=O)N[C@@H](Cc1c[nH]cn1)C(=O)O [FGPH, Phe-Gly-Pro-His] (H-FGPH-OH)
- NO production amount ([1]; sample 125 μg/mL): 18.07 ± 0.31 µM
- NO production amount ([1]; sample 250 μg/mL): 16.23 ± 0.31 µM
- NO production amount ([1]; sample 500 μg/mL): 13.82 ± 0.31 µM
- inhibition ratio of NO production amount ([1]; RAW264.7 induced by LPS, sample 500 μg/mL): 64.41±0.47%
- inhibition ratio of IL-6 secretion [2]: 41.72±1.83%
- viability at 24 h, 125 µg/mL (in vitro): > 109%
- viability at 24 h, 250 µg/mL (in vitro): > 109%
- viability at 24 h, 500 µg/mL (in vitro): > 109%
- viability at 24 h, 1000 µg/mL (in vitro): < 97%
- inhibition ratio of TNF-α secretion [3]: 28.07±2.10%
- inhibition ratio of IL-1β secretion [4]: 52.43±2.29%
